In US20030129753A1, “Chemical screening method” (priority 2002, published 2003):
In brackets after ≈: the same amount, converted by molar mass.

Assay: solubility in ethanol by conventional methods
Type: physicochemical
Settings: organic solvent or mixture, separate experiments by conventional methods
Procedure: The invention was tested on the sulfisoxazole/polyvinylpyrrolidone system in ethanol where sulfisoxazole was the active ingredient and polyvinylpyrrolidone was the carrier of choice. The total time required to evaporate ethanol for each sample was less than 30 seconds. […] This information is important because these solubility parameters determine the minimum amount (volume) of solvent required to co-dissolve the active ingredient and the carrier molecules. Next eight ethanol solutions were prepared of different sulfisoxazole to polyvinylpyrrolidone weight (molar) ratios.

solubility: 16 mg/mL (≈ 59.9 mM)
SMILES: Cc1noc(NS(=O)(=O)c2ccc(N)cc2)c1C [sulfisoxazole]
